For 32 compounds, IC50 results are on record in patent US10550105B2 (Ribon Therapeutics Inc., priority 2018, dated 2020).

The experiment has as its target PARP7 (Homo sapiens (Human), UniProt Q7Z3E1). As to the kind of experiment: Enzymatic assay for inhibition of PARP7: TR-FRET displacement of biotinylated Probe A from the TIPARP active site. The class given is binding. The conditions noted are these: Table A-1. The gist of the method: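 Read-out: 665/615 nm emission ratio (ex 320 nm, 90 μs delay) indexing bound TIPARP–Probe A. Final incubation 30 min, 25° C; compounds in dose response. Curve fit of % inhibition vs concentration; Hill slope floating or fixed at 1 (3-parameter).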

The structures appear in SMILES notation.

Sequence of PARP7 (Q7Z3E1 whole entry): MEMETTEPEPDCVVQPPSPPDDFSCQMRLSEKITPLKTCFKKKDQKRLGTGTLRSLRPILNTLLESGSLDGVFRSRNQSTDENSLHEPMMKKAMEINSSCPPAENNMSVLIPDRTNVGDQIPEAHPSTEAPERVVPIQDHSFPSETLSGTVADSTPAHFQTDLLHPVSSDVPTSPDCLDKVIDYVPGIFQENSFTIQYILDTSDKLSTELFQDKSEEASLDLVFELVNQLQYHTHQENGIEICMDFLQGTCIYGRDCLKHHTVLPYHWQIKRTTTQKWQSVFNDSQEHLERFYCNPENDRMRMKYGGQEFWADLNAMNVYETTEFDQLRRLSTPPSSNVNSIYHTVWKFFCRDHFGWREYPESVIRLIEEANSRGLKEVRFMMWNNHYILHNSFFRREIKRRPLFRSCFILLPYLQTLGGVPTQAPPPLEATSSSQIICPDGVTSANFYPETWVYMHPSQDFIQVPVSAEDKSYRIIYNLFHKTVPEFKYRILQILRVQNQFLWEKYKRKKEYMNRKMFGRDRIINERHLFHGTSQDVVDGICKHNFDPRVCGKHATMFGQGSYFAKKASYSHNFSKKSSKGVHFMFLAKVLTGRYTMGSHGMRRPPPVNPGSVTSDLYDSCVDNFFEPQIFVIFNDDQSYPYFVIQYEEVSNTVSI

A word on the IC50: it is the concentration that inhibits the measured activity by half. Lower therefore signals greater potency in that assay. In the case of `O=c1[nH]ncc(N2Cc3cc(OCCO)cc(F)c3C2)c1C(F)(F)F` [Example 323, 5-(4-Fluoro-6-(2-hydroxyethoxy)isoindolin-2-yl)-4-(trifluoromethyl)pyridazin-3(2H)-one], the IC50 was below 100 nM. Under `O=c1[nH]ncc(N2Cc3ccc(OC4CCNCC4)nc3C2)c1C(F)(F)F` [Example 324, 5-(2-(Piperidin-4-yloxy)-5,7-dihydro-6H-pyrrolo[3,4-b]pyridin-6-yl)-4-(trifluoromethyl)pyridazin-3(2H)-one] stands 100 to 1000 nM; under `O=c1[nH]ncc(N2Cc3cc(OCCN4CCOCC4)cnc3C2)c1C(F)(F)F` [Example 325, 5-(3-(2-Morpholinoethoxy)-5,7-dihydro-6H-pyrrolo[3,4-b]pyridin-6-yl)-4-(trifluoromethyl)pyridazin-3(2H)-one], 100 to 1000 nM. For the compound `COc1cnc2c(c1)CN(c1cn[nH]c(=O)c1C(F)(F)F)C2` [Example 326, 5-(3-Methoxy-5,7-dihydro-6H-pyrrolo[3,4-b]pyridin-6-yl)-4-(trifluoromethyl)pyridazin-3(2H)-one], the IC50 was below 100 nM. Under `NCc1cc2c(cc1F)CN(c1cn[nH]c(=O)c1C(F)(F)F)C2` [Example 327, 5-(5-(Aminomethyl)-6-fluoroisoindolin-2-yl)-4-(trifluoromethyl)pyridazin-3(2H)-one] stands 100 to 1000 nM; under `CN(Cc1ccncc1)Cc1cccc2c1CN(c1cn[nH]c(=O)c1C(F)(F)F)C2` [Example 328, 5-(4-((Methyl(pyridin-4-ylmethyl)amino)methyl)isoindolin-2-yl)-4-(trifluoromethyl)pyridazin-3(2H)-one], below 100 nM; under `O=c1[nH]ncc(N2Cc3cccc(CNCc4ccncc4)c3C2)c1C(F)(F)F` [Example 329, 5-(4-(((Pyridin-4-ylmethyl)amino)methyl)isoindolin-2-yl)-4-(trifluoromethyl)pyridazin-3(2H)-one], below 100 nM. The compound `N#CCC1c2ccccc2CN1c1cn[nH]c(=O)c1C(F)(F)F` (centres unmarked) [Example 330, 2-(2-(6-Oxo-5-(trifluoromethyl)-1,6-dihydropyridazin-4-yl)isoindolin-1-yl)acetonitrile] registered an IC50 of at least 1000 nM. The result for `CN(C)CCOc1cc(F)c2c(c1)CN(c1cn[nH]c(=O)c1C(F)(F)F)C2` [Example 331, 5-(6-(2-(Dimethylamino)ethoxy)-4-fluoroisoindolin-2-yl)-4-(trifluoromethyl)pyridazin-3(2H)-one] reads below 100 nM; that for `COc1ccc2c(c1)C(C)N(c1cn[nH]c(=O)c1C(F)(F)F)C2` (centres unmarked) [Example 332, 5-(6-Methoxy-1-methylisoindolin-2-yl)-4-(trifluoromethyl)pyridazin-3(2H)-one], 100 to 1000 nM; that for `CC(=O)N1CCC(Oc2ccc3c(n2)CN(c2cn[nH]c(=O)c2C(F)(F)F)C3)CC1` [Example 333, 5-(2-((1-Acetylpiperidin-4-yl)oxy)-5,7-dihydro-6H-pyrrolo[3,4-b]pyridin-6-yl)-4-(trifluoromethyl)pyridazin-3(2H)-one], below 100 nM. In turn, `NCCOc1cnc2c(c1)CN(c1cn[nH]c(=O)c1C(F)(F)F)C2` [Example 334, 5-(3-(2-Aminoethoxy)-5,7-dihydro-6H-pyrrolo[3,4-b]pyridin-6-yl)-4-(trifluoromethyl)pyridazin-3(2H)-one] had an IC50 of 100 to 1000 nM. For the compound `CN(C)CCOc1cnc2c(c1)CN(c1cn[nH]c(=O)c1C(F)(F)F)C2` [Example 335, 5-(3-(2-(Dimethylamino)ethoxy)-5,7-dihydro-6H-pyrrolo[3,4-b]pyridin-6-yl)-4-(trifluoromethyl)pyridazin-3(2H)-one], the IC50 was 100 to 1000 nM. The result for `O=c1[nH]ncc(N2Cc3cc(OCc4cccnc4)cnc3C2)c1C(F)(F)F` [Example 336, 5-(3-(Pyridin-3-ylmethoxy)-5,7-dihydro-6H-pyrrolo[3,4-b]pyridin-6-yl)-4-(trifluoromethyl)pyridazin-3(2H)-one] reads below 100 nM. Regarding `COc1ccnc2c1CN(c1cn[nH]c(=O)c1C(F)(F)F)C2` [Example 337, 5-(4-Methoxy-5,7-dihydro-6H-pyrrolo[3,4-b]pyridin-6-yl)-4-(trifluoromethyl)pyridazin-3(2H)-one], the IC50 is below 100 nM. Compound `CC(=O)N1CCC(Oc2ccnc3c2CN(c2cn[nH]c(=O)c2C(F)(F)F)C3)CC1` [Example 338, 5-(4-((1-Acetylpiperidin-4-yl)oxy)-5,7-dihydro-6H-pyrrolo[3,4-b]pyridin-6-yl)-4-(trifluoromethyl)pyridazin-3(2H)-one] returned an IC50 below 100 nM. The result for `O=c1[nH]ncc(N2Cc3cccc(CNc4ccncc4)c3C2)c1C(F)(F)F` [Example 339, 5-(4-((Pyridin-4-ylamino)methyl)isoindolin-2-yl)-4-(trifluoromethyl)pyridazin-3(2H)-one] reads below 100 nM; that for `N#Cc1ccc(N2CCN(C(=O)c3cccc(OCC4c5ccccc5CN4c4cn[nH]c(=O)c4C(F)(F)F)c3)CC2)nc1` (centres unmarked) [Example 340, 6-(4-(3-((2-(6-Oxo-5-(trifluoromethyl)-1,6-dihydropyridazin-4-yl)isoindolin-1-yl)methoxy)benzoyl)piperazin-1-yl)nicotinonitrile], below 100 nM; that for `O=C(c1cccc(OCC2c3ccccc3CN2c2cn[nH]c(=O)c2C(F)(F)F)c1)N1CCN(c2ccccn2)CC1` (centres unmarked) [Example 341, 5-(1-((3-(4-(Pyridin-2-yl)piperazine-1-carbonyl)phenoxy)methyl)isoindolin-2-yl)-4-(trifluoromethyl)pyridazin-3(2H)-one], below 100 nM. The result for `O=C(O)c1cccc(OCC2c3ccccc3CN2c2cn[nH]c(=O)c2C(F)(F)F)c1` (centres unmarked) [Example 342, 3-((2-(6-Oxo-5-(trifluoromethyl)-1,6-dihydropyridazin-4-yl)isoindolin-1-yl)methoxy)benzoic acid] reads at least 1000 nM; that for `CN(CC1c2ccccc2CN1c1cn[nH]c(=O)c1C(F)(F)F)c1cccc(C(=O)N2CCN(c3ccc(C#N)cn3)CC2)c1` (centres unmarked) [Example 343, 6-(4-(3-(Methyl((2-(6-oxo-5-(trifluoromethyl)-1,6-dihydropyridazin-4-yl)isoindolin-1-yl)methyl)amino)benzoyl)piperazin-1-yl)nicotinonitrile], at least 1000 nM; that for `CN(CC1c2ccccc2CN1c1cn[nH]c(=O)c1C(F)(F)F)c1cccc(C(=O)N2CCN(c3ccccn3)CC2)c1` (centres unmarked) [Example 344, 5-(1-((Methyl(3-(4-(pyridin-2-yl)piperazine-1-carbonyl)phenyl)amino)methyl)isoindolin-2-yl)-4-(trifluoromethyl)pyridazin-3(2H)-one], 100 to 1000 nM. Under `CN(CC1c2ccccc2CN1c1cn[nH]c(=O)c1C(F)(F)F)c1cccc(C(=O)O)c1` (centres unmarked) [Example 345, 3-(Methyl((2-(6-oxo-5-(trifluoromethyl)-1,6-dihydropyridazin-4-yl)isoindolin-1-yl)methyl)amino)benzoic acid] stands at least 1000 nM; under `COc1nccc2c1CN(c1cn[nH]c(=O)c1C(F)(F)F)C2` [Example 346, 5-(4-Methoxy-1,3-dihydro-2H-pyrrolo[3,4-c]pyridin-2-yl)-4-(trifluoromethyl)pyridazin-3(2H)-one], below 100 nM; under `O=c1[nH]ncc(N2Cc3cccc(OC4CCN(CC(c5ccccc5)c5ccccc5)CC4)c3C2)c1C(F)(F)F` [Example 347, 5-(4-((1-(2,2-Diphenylethyl)piperidin-4-yl)oxy)isoindolin-2-yl)-4-(trifluoromethyl)pyridazin-3(2H)-one], below 100 nM.

In turn, `N#Cc1ccc(N2CCN(C(=O)c3cccc(NCC4c5ccccc5CN4c4cn[nH]c(=O)c4C(F)(F)F)c3)CC2)nc1` (centres unmarked) [Example 348, 6-(4-(3-(((2-(6-Oxo-5-(trifluoromethyl)-1,6-dihydropyridazin-4-yl)isoindolin-1-yl)methyl)amino)benzoyl)piperazin-1-yl)nicotinonitrile] showed an IC50 below 100 nM.

On to `O=C(c1cccc(OC[C@H]2c3ccccc3CN2c2cn[nH]c(=O)c2C(F)(F)F)c1)N1CCN(c2ccccn2)CC1` [Example 350, (R)-5-(1-((3-(4-(Pyridin-2-yl)piperazine-1-carbonyl)phenoxy)methyl)isoindolin-2-yl)-4-(trifluoromethyl)pyridazin-3(2H)-one], for which the IC50 is 100 to 1000 nM. In the case of `O=C(c1cccc(NCC2c3ccccc3CN2c2cn[nH]c(=O)c2C(F)(F)F)c1)N1CCN(c2ccccn2)CC1` (centres unmarked) [Example 351, 5-(1-(((3-(4-(Pyridin-2-yl)piperazine-1-carbonyl)phenyl)amino)methyl)isoindolin-2-yl)-4-(trifluoromethyl)pyridazin-3(2H)-one], the IC50 is 100 to 1000 nM. `N#Cc1ccc(N2CCN(C(=O)c3cncc(OCC4c5ccccc5CN4c4cn[nH]c(=O)c4C(F)(F)F)c3)CC2)nc1` (centres unmarked) [Example 352, 6-(4-(5-((2-(6-Oxo-5-(trifluoromethyl)-1,6-dihydropyridazin-4-yl)isoindolin-1-yl)methoxy)nicotinoyl)piperazin-1-yl)nicotinonitrile]: the half-inhibitory concentration (IC50) is below 100 nM. `N#Cc1ccc(N2CCN(C(=O)c3cncc(OC[C@@H]4c5ccccc5CN4c4cn[nH]c(=O)c4C(F)(F)F)c3)CC2)nc1` [Example 353, (S)-6-(4-(5-((2-(6-Oxo-5-(trifluoromethyl)-1,6-dihydropyridazin-4-yl)isoindolin-1-yl)methoxy)nicotinoyl)piperazin-1-yl)nicotinonitrile] showed an IC50 below 100 nM. `N#Cc1ccc(N2CCN(C(=O)c3cncc(OC[C@H]4c5ccccc5CN4c4cn[nH]c(=O)c4C(F)(F)F)c3)CC2)nc1` [Example 354, (R)-6-(4-(5-((2-(6-Oxo-5-(trifluoromethyl)-1,6-dihydropyridazin-4-yl)isoindolin-1-yl)methoxy)nicotinoyl)piperazin-1-yl)nicotinonitrile] gave an IC50 of 100 to 1000 nM. The result for `N#Cc1ccc(N2CCN(C(=O)c3cc(OCC4c5ccccc5CN4c4cn[nH]c(=O)c4C(F)(F)F)ccn3)CC2)nc1` (centres unmarked) [Example 355, 6-(4-(4-((2-(6-Oxo-5-(trifluoromethyl)-1,6-dihydropyridazin-4-yl)isoindolin-1-yl)methoxy)picolinoyl)piperazin-1-yl)nicotinonitrile] reads below 100 nM.
